Among the data in US10253007B2, “Taxanes compounds, preparation method therefor, and uses thereof” (Jiangsu Tasly Diyi Pharmaceutical Co., Ltd., priority 2013, dated 2019) are inhibition and IC50 values, retold here.

The IC50 is the point on the concentration scale where inhibition reaches its midpoint.

Assay [1] is described as follows: MTT assay, proliferation inhibition. In kind it is cell-based. To be noted: Homo sapiens, LN-18 gastric cancer, read-out: Proliferation inhibition rate. The text has this: 1. Cytotoxicity Assay Using Human Tumor Cell Lines
Paclitaxel was used as the positive drug.
For orientation: Tetrazolium assays rely on reduction of a dye to a coloured formazan, in cell work by metabolically active cells.

In assay [2] the test system is breast cancer cell line MCF-7. In words: IC50 values on breast cancer cell line MCF-7. In kind it is cell-based. The following applies: Homo sapiens, MCF7, 72 h, read-out: MCF-7(IC50, nM). Put shortly:
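MCF-7 human breast cancer cells exposed to compounds for 72 h, with paclitaxel as positive control. IC50 from three independent repeats with replicate wells.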

Take `CO[C@H]1C(=O)[C@]2(C)[C@@H](OC(=O)N(C)C)C[C@H]3OC[C@@]3(OC(C)=O)[C@H]2[C@H](OC(=O)c2ccccc2)[C@]2(O)C[C@H](OC(=O)[C@H](O)[C@@H](NC(=O)OC(C)(C)C)c3ccccc3)C(C)=C1C2(C)C` [PCMI-31]: in assay [1], the inhibition at 1 µM was found to be 95.6%. In addition, in assay [2], the half-inhibitory concentration (IC50) was found to be 9.63 ± 0.12 nM.
